Experimental data taken from US20090241221A1, “TANDEM REAPEAT DNA CONSTRUCTS PRODUCING PROTEINS THAT ATTACK PLANT PATHOGENIC VIRUSES, FUNGI, AND BACTERIA BY DISRUPTING TRANSCRIPTION FACTORS ESSENTIAL FOR REPLICATION THEREOF IN PLANTS” (priority 2008, published 2009).
Entries after “also recorded” stand apart in the source; their conditions may differ.

Tests used:
Mammalian rotaviruses = details: millimolar concentrations; cited from earlier work
mammalian retroviruses = details: millimolar concentrations; measured by release of reverse transcriptase; cited from earlier work
[1] = test system: Arabidopsis thaliana ars27A mutant; details: in comparison with the wild type; cited from earlier work
[2] = test system: SV40-transformed Balb 3T3 cells; details: cited from earlier work
[3] = test system: tomato spotted wilt virus; details: tomato and tobacco plants; cited from earlier work
virally infected cells = assay: Apoptosis of virally infected cells; assay type: cell-based; details: for fate of viruses and host cells: HIV-1, Hepatitis C and numerous other viruses as well as the host cells
From the text: APOPTOSIS. Apoptosis is a morphological pattern of cell injury and an important mode of cell death (Robbins, Pathological Basis of Disease, 1999, 6th Ed). Apoptosis shares and overlaps common mechanisms with necrosis. […] This form of cell death is designed to eliminate defective, unwanted and damaged cells. For example, the inventors have shown that cells infected by Herpes Simplex Virus 1 (HSV; labialis) and HSV-2 genitalis are destroyed together with the host cells that they infected by apoptosis when exposed to pyridine carboxylates (Fernandez-Pol, Anticancer Res. 2002). […] Thus, the inventors believes that when host cells of animals or plants are infected by pathogenic viruses, unless the treatment is extremely quickly, the host cells and the virus will be destroyed. In fact, host cells defective, mutated, and reservoirs for the novo synthesis of viruses are unwanted host cells and must be eliminated in many instances to allow the survival of the organism.

HSV-1 = details: tissue culture and animals; cited from earlier work
Arabidopsis thaliana [4] = details: cited from earlier work
recombinant MPS-1 = biological target: T1, recombinant MPS-1 (Homo sapiens, UniProt P42677); assay: Gel shift assay and Zn65 removal with recombinant MPS-1; assay type: biochemical; details: for zinc dependent binding of recombinant MPS-1 to DNA: gel shift assays
T1 construct: made in house
From the text: MPS-1 is a ubiquitous tumor marker and cell growth stimulator and is described in detail in the inventors' U.S. Pat. No. 5,243,041. MPS-1 has one zinc finger domain of the type CCCC. […] This is detected by a change in the electrophoretic mobility of MPS-1 under non-denaturing conditions. These experiments indicate that picolinic acid and derivatives should remove zinc and denature various types of zinc finger, zinc ring proteins, or other types of ZF motifs whether known or heretofore undiscovered, including animal or plant viral proteins such as nucleocapsid proteins of retrovirus or the nucleocapsid proteins of Geminivirus. Furthermore, the inventors have determined that any chemical compound, whether known or heretofore undiscovered, that will remove the zinc (or other metal) and denature the proteins or that will form a ternary complex (protein-zinc-chelator) can be effective as an antiviral agent, with nontoxic effects, provided that the agent conforms with certain specific structural requirements.

HSV-2 = details: tissue culture and animals; cited from earlier work
Orobache ramosa = details: Arabidopsis thaliana pre-treated with FU; cited from earlier work
[5] = test system: SV40 transformed BALB-3T3 cells; details: 3 mM picolinic acid; cited from earlier work
Arabidopsis thaliana [6] = details: cited from earlier work; remark: listed apart in the source
transformed cells = details: Kirsten sarcoma virus transformed cells; Flow Microfluorometric Analysis of DNA; cited from earlier work
NRK cells = NRK cells treated with picolinic acid; cited from earlier work
[7] = test system: normal cells (BALB 3T3, NRK, WI-348); assay: Growth control and cell cycle arrest in normal cells
[8] = test system: iron incorporation into the cells; assay: Kinetic and radioisotopic studies of iron in cells; assay type: cell-based
[9] = test system: Rice suspension cells and leaves; details: cited from earlier work

## O=C(O)CN(CCN(CC(=O)O)CC(=O)O)CC(=O)O [EDTA]
Mammalian rotaviruses
  disintegration of viral membranes: partial disintegration of the viral membranes
Mammalian retroviruses
  disintegration of viral membranes: partial disintegration of viral membranes

## O=C(O)CN(CCOCCOCCN(CC(=O)O)CC(=O)O)CC(=O)O [EGTA]
Mammalian rotaviruses
  disintegration of viral membranes: partial disintegration of the viral membranes
Mammalian retroviruses
  disintegration of viral membranes: partial disintegration of viral membranes

## COS(C)(=O)=O [MMS, Methyl Methane Sulphonate]
[1]
  growth of ars27A seedlings: strongly inhibited

## NC(=O)c1cccnc1 [Nicotinamide, reference compound]
[2]; 48 h
  effect on cell growth or apoptosis: no effect on cell growth or apoptosis

## NC(=O)c1ncn([C@@H]2O[C@H](CO)[C@@H](O)[C@H]2O)n1 [Ribavirin]
[3]
  efficacy against tomato spotted wilt virus: successfully used; also recorded: most efficient in tomato plants

## CCCCc1ccc(C(=O)O)nc1 [fusaric acid, 5-butyl picolinic acid]
Virally infected cells
  fate of viruses and host cells: Death by apoptosis
HSV-1
  efficacy against viral infection: effective
Arabidopsis thaliana [4]; also rapid transient membrane hyperpolarization, then large depolarization
  concentrations that reduced root growth: > 500 µM
Arabidopsis thaliana [4]; in vivo
  concentration eliciting plant defense responses without toxic effects: 100 nM
Recombinant MPS-1
  removal of zinc (Zn65) from the CCCC zinc finger of MPS-1: remove radioactive Zn65 from MPS-1; also recorded: remove zinc
  zinc dependent binding of recombinant MPS-1 to DNA: inhibit
HSV-2
  efficacy against viral infection: effective
Orobache ramosa
  germination of the angiosperm parasite: inhibited

## O=C(O)c1ccccn1 [picolinic acid, 2-pyridine carboxylic acid]
[5]
  mitochondrial cytochrome c release: released cytochrome c
Arabidopsis thaliana [6]; dose-dependent and time dependent
  marker defense genes PR-1, PR-2 and PDF1.2: all induced
Arabidopsis thaliana [6]; in vivo
  salicylic acid-dependent and jasmonic acid/ethylene-dependent pathways: strongly activated
Arabidopsis thaliana [6]; including the oxidative burst and cell death
  hypersensitive response (HR): induced HR
[2]
  sensitivity of transformed cells to apoptosis: extremely sensitive to apoptosis
Virally infected cells
  fate of viruses and host cells: Death by apoptosis
Virally infected cells; by apoptosis
  fate of virally infected cells: killed
Transformed cells
  phase of cell cycle arrest: G1 phase
Recombinant MPS-1
  removal of zinc (Zn65) from the CCCC zinc finger of MPS-1: remove radioactive Zn65 from MPS-1; also recorded: remove zinc
  zinc dependent binding of recombinant MPS-1 to DNA: inhibit
NRK cells
  potency of prostaglandin E1 in elevating cyclic AMP: two to five times more potent
[7]; longer exposure (one week)
  toxic effects in normal cells: most normal cells showed no toxic effects; also recorded: no toxic effects
[7]; short-term treatment
  cell cycle arrest of normal cells: arrests normal cells in G1 (Go)
[8]
  incorporation of iron into the cells: inhibits incorporation of iron into the cells
  removal of radioiron from the cells: effectively removes radioiron from the cells
[9]; Rice suspension cells and leaves
  apoptosis: showed apoptosis
[9]; rice suspension cells, Ca^2+-dependent
  reactive oxygen species: induced reactive oxygen species (ROS)
[9]; rice
  hypersensitive response (HR): can elicit the hypersensitive response (HR)
